Measurements from patent US10662229B2, “Spider venom peptides and methods of use for modulating sodium channels” (priority 2016, dated 2020).
Where a SMILES comes first, the peptide text is derived from it. Bridges are numbered along the chain shown (N, C = ends).

Legend:
Format in all cases: cell-based
hNav1.1 = molecular target: T1, hNav1.1 (Homo sapiens, UniProt P35498); test: FLIPR membrane potential assay, hNav1.1; settings: for Selectivity for Nav1.7, Nav subtype 1.1: membrane potential assay
T1 construct: host or cells: HEK293
Description: (§1) HEK293 cells stably expressing hNav1.1, hNav1.2, hNav1.3, hNav1.4, hNav1.5, hNav1.6, hNav1.7 and […] (SB Drug Discovery, Glasgow, UK) were cultured in minimum essential media (MEM) containing 10% v/v FBS supplemented with L-glutamine (2 mM) and selection antibiotics G-418 (0.5 mg/mL), blasticidin (2-4 μg/mL) and zeocin (0.5 mg/mL) as recommended by the manufacturer. CHO cells stably expressing hNav1.8 in a tetracycline-inducible system (Chantest, OH, USA) were cultured in Ham's F-12 containing 10% v/v FBS and selection antibiotics as recommended by the manufacturer. To induce hNav1.8 expression, cells were cultured in the presence of tetracycline (1 μg/mL) for 24 h at 27° C. Cells were grown in a humidified 5% CO2 incubator at 37° C., grown to 70-80% confluence, and passaged every 3-4 days using TrypLE Express (Invitrogen).
(§2) Cells were plated 48 h before the assay on 384-well black walled imaging plates at a density of 10,000 to 15,000 cells per well and were loaded with red membrane potential dye for 30 min at 37° C. (Molecular Devices, CA, USA). One vial of bulk red membrane potential dye was reconstituted to a 10× stock solution with PSS and stored at −20° C. and diluted to 1× solution with PSS on the day of the assay. […] Changes in membrane potential were assessed using the FLIPR^TETRA (excitation 515 to 545 nm, emission 565 to 625 nm) every second for 300 s after adding agonists.

hNav1.2 = molecular target: T2, hNav1.2 (Homo sapiens, UniProt Q99250); test: FLIPR membrane potential assay, hNav1.2; settings: for Selectivity for Nav1.7, Nav subtype 1.2: membrane potential assay
T2 construct: host or cells: HEK293
Description: as §1, §2

hNav1.3 = molecular target: T3, hNav1.3 (Homo sapiens, UniProt Q9NY46); test: FLIPR membrane potential assay, hNav1.3; settings: for Selectivity for Nav1.7, Nav subtype 1.3: membrane potential assay
T3 construct: host or cells: HEK293
Description: as §1, §2

hNav1.4 = molecular target: T4, hNav1.4 (Homo sapiens, UniProt P35499); test: FLIPR membrane potential assay, hNav1.4; settings: for Selectivity for Nav1.7, Nav subtype 1.4: membrane potential assay
T4 construct: host or cells: HEK293
Description: as §1, §2

hNav1.5 = molecular target: T5, hNav1.5 (Homo sapiens, UniProt Q14524); test: FLIPR membrane potential assay, hNav1.5; settings: for Selectivity for Nav1.7, Nav subtype 1.5: membrane potential assay
T5 construct: host or cells: HEK293
Description: as §1, §2

hNav1.6 = molecular target: T6, hNav1.6 (Homo sapiens, UniProt Q9UQD0); test: FLIPR membrane potential assay, hNav1.6; settings: for Selectivity for Nav1.7, Nav subtype 1.6: membrane potential assay
T6 construct: host or cells: HEK293
Description: as §1, §2

hNav1.7 = molecular target: T7, hNav1.7 (Homo sapiens, UniProt Q15858); test: FLIPR membrane potential assay, hNav1.7; settings: for Selectivity for Nav1.7, Nav subtype 1.7: membrane potential assay, reference subtype
T7 construct: host or cells: HEK293
Description: as §1, §2

hNav1.8 = molecular target: T8, hNav1.8 (Homo sapiens, UniProt Q9Y5Y9); test: FLIPR membrane potential assay, hNav1.8; settings: for Selectivity for Nav1.7, Nav subtype 1.8: membrane potential assay
T8 construct: host or cells: HEK293
Description: as §1, §2

T7 sequence (Q15858 whole entry): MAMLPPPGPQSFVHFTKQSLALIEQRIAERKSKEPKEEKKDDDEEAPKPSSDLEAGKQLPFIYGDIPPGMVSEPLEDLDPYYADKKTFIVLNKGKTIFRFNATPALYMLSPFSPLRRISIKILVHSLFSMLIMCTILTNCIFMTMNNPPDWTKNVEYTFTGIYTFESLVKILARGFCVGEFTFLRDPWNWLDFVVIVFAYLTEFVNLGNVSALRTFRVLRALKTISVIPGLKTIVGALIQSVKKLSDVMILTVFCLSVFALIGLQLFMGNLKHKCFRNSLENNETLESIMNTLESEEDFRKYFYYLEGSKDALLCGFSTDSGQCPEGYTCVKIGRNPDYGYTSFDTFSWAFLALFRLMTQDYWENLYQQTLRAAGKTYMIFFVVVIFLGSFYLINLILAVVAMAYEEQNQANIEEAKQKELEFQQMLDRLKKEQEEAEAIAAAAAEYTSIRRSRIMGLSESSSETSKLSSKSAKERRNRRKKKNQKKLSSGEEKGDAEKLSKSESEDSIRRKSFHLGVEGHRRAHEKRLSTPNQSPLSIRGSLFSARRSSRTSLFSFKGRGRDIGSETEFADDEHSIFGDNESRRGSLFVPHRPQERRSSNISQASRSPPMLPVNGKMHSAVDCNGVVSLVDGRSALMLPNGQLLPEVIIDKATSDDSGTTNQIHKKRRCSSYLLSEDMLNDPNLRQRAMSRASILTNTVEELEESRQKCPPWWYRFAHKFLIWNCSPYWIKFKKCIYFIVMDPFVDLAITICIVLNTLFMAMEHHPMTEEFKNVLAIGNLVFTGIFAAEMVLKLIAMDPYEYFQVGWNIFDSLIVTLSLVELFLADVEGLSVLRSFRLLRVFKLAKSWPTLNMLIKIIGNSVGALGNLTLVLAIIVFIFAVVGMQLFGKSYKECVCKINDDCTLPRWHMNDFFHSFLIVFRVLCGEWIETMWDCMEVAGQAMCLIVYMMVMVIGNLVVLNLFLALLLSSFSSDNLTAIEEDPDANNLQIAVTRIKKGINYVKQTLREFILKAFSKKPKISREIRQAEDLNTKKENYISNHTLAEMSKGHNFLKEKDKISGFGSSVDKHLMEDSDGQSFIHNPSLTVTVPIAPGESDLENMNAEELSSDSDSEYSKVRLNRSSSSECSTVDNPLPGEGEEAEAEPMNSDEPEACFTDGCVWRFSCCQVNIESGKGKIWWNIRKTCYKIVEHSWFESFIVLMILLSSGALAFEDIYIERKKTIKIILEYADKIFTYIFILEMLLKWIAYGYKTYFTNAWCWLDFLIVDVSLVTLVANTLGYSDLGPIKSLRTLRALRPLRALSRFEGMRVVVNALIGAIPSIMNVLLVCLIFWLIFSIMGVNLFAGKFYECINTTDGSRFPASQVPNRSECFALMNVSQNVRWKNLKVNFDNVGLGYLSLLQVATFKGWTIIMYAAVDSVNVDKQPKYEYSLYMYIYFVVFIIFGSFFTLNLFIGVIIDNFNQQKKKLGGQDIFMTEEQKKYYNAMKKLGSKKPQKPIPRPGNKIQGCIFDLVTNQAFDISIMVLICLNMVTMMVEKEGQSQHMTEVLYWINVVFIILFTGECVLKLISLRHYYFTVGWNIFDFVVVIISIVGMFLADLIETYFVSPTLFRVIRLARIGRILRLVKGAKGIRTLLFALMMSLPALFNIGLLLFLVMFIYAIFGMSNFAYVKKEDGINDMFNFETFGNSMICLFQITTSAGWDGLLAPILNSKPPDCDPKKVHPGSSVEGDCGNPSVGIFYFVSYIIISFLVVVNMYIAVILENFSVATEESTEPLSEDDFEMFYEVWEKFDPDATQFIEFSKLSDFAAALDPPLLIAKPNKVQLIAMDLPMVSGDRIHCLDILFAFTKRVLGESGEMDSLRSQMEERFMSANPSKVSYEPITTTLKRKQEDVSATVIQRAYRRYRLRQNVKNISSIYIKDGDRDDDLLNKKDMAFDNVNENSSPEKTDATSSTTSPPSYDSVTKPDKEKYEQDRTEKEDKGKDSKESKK
T5 sequence (Q14524 whole entry): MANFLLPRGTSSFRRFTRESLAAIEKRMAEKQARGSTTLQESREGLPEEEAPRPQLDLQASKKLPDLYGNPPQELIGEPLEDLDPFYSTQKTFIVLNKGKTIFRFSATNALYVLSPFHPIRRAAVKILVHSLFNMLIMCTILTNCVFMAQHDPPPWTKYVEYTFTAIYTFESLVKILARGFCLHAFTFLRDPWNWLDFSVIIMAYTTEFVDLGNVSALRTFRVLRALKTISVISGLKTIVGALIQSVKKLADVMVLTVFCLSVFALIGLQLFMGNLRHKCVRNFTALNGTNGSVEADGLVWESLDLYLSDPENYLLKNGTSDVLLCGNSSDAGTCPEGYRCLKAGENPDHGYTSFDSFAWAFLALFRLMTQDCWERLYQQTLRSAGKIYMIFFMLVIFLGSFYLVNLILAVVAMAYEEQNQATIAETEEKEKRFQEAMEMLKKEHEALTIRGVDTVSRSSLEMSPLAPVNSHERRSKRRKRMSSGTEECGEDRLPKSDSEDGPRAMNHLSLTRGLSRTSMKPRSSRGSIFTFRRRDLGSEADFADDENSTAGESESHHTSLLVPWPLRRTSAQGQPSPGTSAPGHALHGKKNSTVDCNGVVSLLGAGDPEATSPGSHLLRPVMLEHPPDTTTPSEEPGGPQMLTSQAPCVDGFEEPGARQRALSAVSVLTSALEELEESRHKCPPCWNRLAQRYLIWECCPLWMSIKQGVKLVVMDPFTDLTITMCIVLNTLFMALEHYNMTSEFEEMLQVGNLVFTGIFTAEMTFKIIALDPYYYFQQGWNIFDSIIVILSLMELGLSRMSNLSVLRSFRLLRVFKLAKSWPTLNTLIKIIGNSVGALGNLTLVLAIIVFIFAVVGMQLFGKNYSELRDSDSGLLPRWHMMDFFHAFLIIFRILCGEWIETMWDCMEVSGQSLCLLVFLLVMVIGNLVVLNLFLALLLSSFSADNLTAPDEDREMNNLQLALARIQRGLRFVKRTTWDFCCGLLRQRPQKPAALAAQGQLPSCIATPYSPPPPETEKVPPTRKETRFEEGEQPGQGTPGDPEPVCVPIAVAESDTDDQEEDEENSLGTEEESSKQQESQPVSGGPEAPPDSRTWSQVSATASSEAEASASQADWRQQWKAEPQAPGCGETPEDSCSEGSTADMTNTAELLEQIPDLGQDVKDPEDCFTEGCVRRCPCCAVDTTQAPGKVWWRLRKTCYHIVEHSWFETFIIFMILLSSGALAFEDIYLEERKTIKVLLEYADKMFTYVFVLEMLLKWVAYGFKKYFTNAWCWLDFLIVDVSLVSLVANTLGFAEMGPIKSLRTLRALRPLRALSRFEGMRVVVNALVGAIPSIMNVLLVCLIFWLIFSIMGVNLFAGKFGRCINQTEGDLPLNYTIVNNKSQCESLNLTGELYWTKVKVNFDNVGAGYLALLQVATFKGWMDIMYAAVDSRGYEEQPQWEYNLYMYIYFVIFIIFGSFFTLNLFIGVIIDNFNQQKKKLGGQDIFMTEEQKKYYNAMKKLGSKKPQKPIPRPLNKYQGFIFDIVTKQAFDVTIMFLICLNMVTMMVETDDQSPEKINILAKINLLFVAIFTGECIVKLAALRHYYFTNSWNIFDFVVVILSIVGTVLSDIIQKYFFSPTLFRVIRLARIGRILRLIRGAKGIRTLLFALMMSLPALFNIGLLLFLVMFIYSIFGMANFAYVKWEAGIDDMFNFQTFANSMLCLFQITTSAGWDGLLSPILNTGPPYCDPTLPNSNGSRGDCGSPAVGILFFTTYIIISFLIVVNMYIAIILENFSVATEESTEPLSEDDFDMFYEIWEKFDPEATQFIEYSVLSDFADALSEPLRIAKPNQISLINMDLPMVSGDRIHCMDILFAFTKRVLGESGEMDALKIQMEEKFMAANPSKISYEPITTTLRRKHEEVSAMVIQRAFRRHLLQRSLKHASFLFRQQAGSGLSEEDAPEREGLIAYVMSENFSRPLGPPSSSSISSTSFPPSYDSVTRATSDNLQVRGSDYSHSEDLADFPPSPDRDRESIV

| SMILES | IC50 (hNav1.1) [µM] | Selectivity for Nav1.7, Nav subtype 1.1 (hNav1.1) | IC50 (hNav1.2) [µM] | Selectivity for Nav1.7, Nav subtype 1.2 (hNav1.2) | IC50 (hNav1.3) [µM] | Selectivity for Nav1.7, Nav subtype 1.3 (hNav1.3) | IC50 (hNav1.4) [µM] | Selectivity for Nav1.7, Nav subtype 1.4 (hNav1.4) | IC50 (hNav1.5) [µM] | Selectivity for Nav1.7, Nav subtype 1.5 (hNav1.5) | IC50 (hNav1.6) [µM] | Selectivity for Nav1.7, Nav subtype 1.6 (hNav1.6) | IC50 (hNav1.7) [µM] | Selectivity for Nav1.7, Nav subtype 1.7 (hNav1.7) | IC50 (hNav1.8) [µM] | Selectivity for Nav1.7, Nav subtype 1.8 (hNav1.8) |
| --- | --- | --- | --- | --- | --- | --- | --- | --- | --- | --- | --- | --- | --- | --- | --- | --- |
| CSCC[C@@H]1NC(=O)[C@H](Cc2ccc(O)cc2)NC(=O)[C@H](CCCNC(=N)N)NC(=O)[C@@H](NC(=O)[C@@H](N)CC(=O)O)CSSC[C@@H]2NC(=O)[C@@H]3CSSC[C@@H](C(=O)N[C@@H](C)C(=O)N[C@@H](C)C(=O)N[C@@H](CC(=O)O)C(=O)N[C@@H](Cc4ccccc4)C(=O)N[C@H](C(=O)N[C@@H](Cc4ccccc4)C(=O)N[C@H](C(=O)O)[C@@H](C)O)[C@@H](C)O)NC(=O)[C@H](Cc4ccc(O)cc4)NC(=O)[C@H](CCCCN)NC(=O)[C@H](CCSC)NC(=O)[C@H](CCCCN)NC(=O)[C@H](CCCNC(=N)N)NC(=O)[C@H](CCCCN)NC(=O)[C@H](CSSC[C@H](NC(=O)[C@H](CC(=O)O)NC(=O)CNC(=O)[C@H](Cc4ccccc4)NC1=O)C(=O)N[C@@H](CCC(=O)O)C(=O)N[C@@H](CCCCN)C(=O)N[C@@H](CC(=O)O)C(=O)N[C@@H](CCC(=O)O)C(=O)N[C@@H](CC(=O)O)C(=O)N3)NC(=O)CNC(=O)[C@H](CC(C)C)NC(=O)[C@H](Cc1c[nH]cn1)NC(=O)[C@H](CCCCN)NC2=O [[W30A]Pnc1a] (H-DCRYMFGDCEKDEDCCKHLGCKRKMKYCAADFTFT-OH; disulfide 2-16, 9-21, 15-28) | 15 | 2 | 24 | 3 | 11 | 2 | 12 | 2 | 6 | 0.9 | > 30 | 4 | 7 | 1 | > 30 | 4 |
| CSCC[C@@H]1NC(=O)[C@H](Cc2ccc(O)cc2)NC(=O)[C@H](CCCNC(=N)N)NC(=O)[C@@H](NC(=O)[C@@H](N)CC(=O)O)CSSC[C@@H]2NC(=O)[C@@H]3CSSC[C@@H](C(=O)N[C@@H](C)C(=O)N[C@@H](Cc4c[nH]c5ccccc45)C(=O)N[C@@H](CC(=O)O)C(=O)N[C@@H](Cc4ccccc4)C(=O)N[C@H](C(=O)N[C@@H](Cc4ccccc4)C(=O)N[C@H](C(=O)O)[C@@H](C)O)[C@@H](C)O)NC(=O)[C@H](Cc4ccc(O)cc4)NC(=O)[C@H](CCCCN)NC(=O)[C@H](CCSC)NC(=O)[C@H](CCCCN)NC(=O)[C@H](CCCNC(=N)N)NC(=O)[C@H](CCCCN)NC(=O)[C@H](CSSC[C@H](NC(=O)[C@H](CC(=O)O)NC(=O)CNC(=O)[C@H](Cc4ccccc4)NC1=O)C(=O)N[C@@H](CCC(=O)O)C(=O)N[C@@H](CCCCN)C(=O)N[C@@H](CC(=O)O)C(=O)N[C@@H](C)C(=O)N[C@@H](CC(=O)O)C(=O)N3)NC(=O)CNC(=O)[C@H](CC(C)C)NC(=O)[C@H](Cc1c[nH]cn1)NC(=O)[C@H](CCCCN)NC2=O [[E13A]Pnc1a] (H-DCRYMFGDCEKDADCCKHLGCKRKMKYCAWDFTFT-OH; disulfide 2-16, 9-21, 15-28) | 4 | 29 | 0.566 | 4 | 2 | 18 | 5 | 36 | > 30 | >217 | 8 | 61 | 0.139 | 1 | > 30 | >217 |
| CSCC[C@@H]1NC(=O)[C@H](Cc2ccc(O)cc2)NC(=O)[C@H](CCCNC(=N)N)NC(=O)[C@@H](NC(=O)[C@@H](N)CC(=O)O)CSSC[C@@H]2NC(=O)[C@@H]3CSSC[C@@H](C(=O)N[C@@H](C)C(=O)N[C@@H](Cc4c[nH]c5ccccc45)C(=O)N[C@@H](CC(=O)O)C(=O)N[C@@H](Cc4ccccc4)C(=O)N[C@H](C(=O)N[C@@H](Cc4ccccc4)C(=O)N[C@H](C(=O)O)[C@@H](C)O)[C@@H](C)O)NC(=O)[C@H](Cc4ccc(O)cc4)NC(=O)[C@H](CCCCN)NC(=O)[C@H](CCSC)NC(=O)[C@H](CCCCN)NC(=O)[C@H](CCCNC(=N)N)NC(=O)[C@H](CCCCN)NC(=O)[C@H](CSSC[C@H](NC(=O)[C@H](CC(=O)O)NC(=O)CNC(=O)[C@H](Cc4ccccc4)NC1=O)C(=O)N[C@@H](CCC(=O)O)C(=O)N[C@@H](CCCCN)C(=O)N[C@@H](CC(=O)O)C(=O)N[C@@H](CCCCN)C(=O)N[C@@H](CC(=O)O)C(=O)N3)NC(=O)CNC(=O)[C@H](CC(C)C)NC(=O)[C@H](Cc1c[nH]cn1)NC(=O)[C@H](CCCCN)NC2=O [[E13K]Pnc1a] (H-DCRYMFGDCEKDKDCCKHLGCKRKMKYCAWDFTFT-OH; disulfide 2-16, 9-21, 15-28) | – | – | 0.378 | 4 | 6 | 66 | 2 | 27 | > 30 | >300 | 1 | 14 | – | 1 | > 30 | >300 |
| CSCC[C@@H]1NC(=O)[C@H](Cc2ccc(O)cc2)NC(=O)[C@H](CCCNC(=N)N)NC(=O)[C@@H](NC(=O)[C@H](CC(=O)O)NC(C)=O)CSSC[C@@H]2NC(=O)[C@@H]3CSSC[C@@H](C(=O)N[C@@H](C)C(=O)N[C@@H](Cc4c[nH]c5ccccc45)C(=O)N[C@@H](CC(=O)O)C(=O)N[C@@H](Cc4ccccc4)C(=O)N[C@H](C(=O)N[C@@H](Cc4ccccc4)C(=O)N[C@H](C(=O)O)[C@@H](C)O)[C@@H](C)O)NC(=O)[C@H](Cc4ccc(O)cc4)NC(=O)[C@H](CCCCN)NC(=O)[C@H](CCSC)NC(=O)[C@H](CCCCN)NC(=O)[C@H](CCCNC(=N)N)NC(=O)[C@H](CCCCN)NC(=O)[C@H](CSSC[C@H](NC(=O)[C@H](CC(=O)O)NC(=O)CNC(=O)[C@H](Cc4ccccc4)NC1=O)C(=O)N[C@@H](CCC(=O)O)C(=O)N[C@@H](CCCCN)C(=O)N[C@@H](CC(=O)O)C(=O)N[C@@H](CCC(=O)O)C(=O)N[C@@H](CC(=O)O)C(=O)N3)NC(=O)CNC(=O)[C@H](CC(C)C)NC(=O)[C@H](Cc1c[nH]cn1)NC(=O)[C@H](CCCCN)NC2=O [Ac-Pnc1a] | 23 | – | 5 | – | 8 | – | 14 | – | > 30 | – | 16 | – | – | – | > 30 | – |
| CSCC[C@@H]1NC(=O)[C@H](Cc2ccc(O)cc2)NC(=O)[C@H](CCCNC(=N)N)NC(=O)[C@@H](NC(=O)[C@@H](N)CC(=O)O)CSSC[C@@H]2NC(=O)[C@@H]3CSSC[C@@H](C(=O)N[C@@H](C)C(=O)N[C@@H](Cc4c[nH]c5ccccc45)C(=O)N[C@@H](CC(=O)O)C(=O)N[C@@H](Cc4ccccc4)C(=O)N[C@H](C(=O)N[C@@H](Cc4ccccc4)C(=O)N[C@H](C(N)=O)[C@@H](C)O)[C@@H](C)O)NC(=O)[C@H](Cc4ccc(O)cc4)NC(=O)[C@H](CCCCN)NC(=O)[C@H](CCSC)NC(=O)[C@H](CCCCN)NC(=O)[C@H](CCCNC(=N)N)NC(=O)[C@H](CCCCN)NC(=O)[C@H](CSSC[C@H](NC(=O)[C@H](CC(=O)O)NC(=O)CNC(=O)[C@H](Cc4ccccc4)NC1=O)C(=O)N[C@@H](CCC(=O)O)C(=O)N[C@@H](CCCCN)C(=O)N[C@@H](CC(=O)O)C(=O)N[C@@H](CCC(=O)O)C(=O)N[C@@H](CC(=O)O)C(=O)N3)NC(=O)CNC(=O)[C@H](CC(C)C)NC(=O)[C@H](Cc1c[nH]cn1)NC(=O)[C@H](CCCCN)NC2=O [Pnc1a-CONH2] | 8 | – | 3 | – | 7 | – | 16 | – | > 30 | – | 20 | – | – | – | > 30 | – |
